According to PubChem BioAssay (NCI):
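48-hour exposure; five concentrations; linearly interpolated endpoints. TGI is the concentration that stops growth completely.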

Key:
Test in all cases: NCI tumour cell line growth inhibition, 48 h
[1] = system: 786-0 renal
[2] = system: A498 renal
[3] = system: A549 NSCLC
[4] = system: ACHN renal
[5] = system: BT-549 breast
[6] = system: CAKI-1 renal
[7] = system: CCRF-CEM leukemia
[8] = system: COLO 205 colon
[9] = system: DU-145 prostate
[10] = system: EKVX NSCLC
[11] = system: HCC-2998 colon
[12] = system: HCT-116 colon
[13] = system: HCT-15 colon
[14] = system: HL-60(TB) leukemia
[15] = system: HOP-62 NSCLC
[16] = system: HOP-92 NSCLC
[17] = system: HT29 colon
[18] = system: IGROV1 ovarian
[19] = system: K-562 leukemia
[20] = system: KM12 colon
[21] = system: LOX IMVI melanoma
[22] = system: M14 melanoma
[23] = system: MCF7 breast
[24] = system: MDA-MB-231 breast
[25] = system: MDA-MB-435
[26] = system: MDA-N
[27] = system: MOLT-4 leukemia
[28] = system: NCI-H226 lung
[29] = system: NCI-H23 lung
[30] = system: NCI-H460 lung
[31] = system: NCI-H522 lung
[32] = system: NCI/ADR-RES ovarian
[33] = system: OVCAR-3 ovarian
[34] = system: OVCAR-4 ovarian
[35] = system: OVCAR-5 ovarian
[36] = system: OVCAR-8 ovarian
[37] = system: PC-3 prostate
[38] = system: RXF 393 renal
[39] = system: SF-268 CNS
[40] = system: SF-295 CNS
[41] = system: SF-539 CNS
[42] = system: SK-MEL-2 melanoma
[43] = system: SK-MEL-28 melanoma
[44] = system: SK-MEL-5 melanoma
[45] = system: SK-OV-3 ovarian
[46] = system: SN12C renal
[47] = system: SNB-19 CNS
[48] = system: SNB-75 CNS
[49] = system: SR leukemia
[50] = system: SW-620 colon
[51] = system: T-47D breast
[52] = system: TK-10 renal
[53] = system: U251 CNS
[54] = system: UACC-257 melanoma
[55] = system: UACC-62 melanoma
[56] = system: UO-31 renal

Work on `CCCCN(CCCC)C1(c2cc3ccccc3s2)CCCCC1` yielded a TGI [1] of 27.3 µM, a TGI [2] of 34.1 µM and a TGI [3] of 34 µM. For the same compound, the TGI [4] was 30.3 µM, the TGI [5] was 35.1 µM and the TGI [6] was 32.8 µM. The TGI [7] was 28.7 µM, the TGI [8] was 31.3 µM and the TGI [9] was 30 µM. The TGI [10] was 36.6 µM, the TGI [11] was 27.4 µM and the TGI [12] was 23.7 µM. It also gave a TGI [13] of 30.8 µM, a TGI [14] of 34.3 µM and a TGI [15] of 29.2 µM. For the same compound, the TGI [16] was 25.5 µM, the TGI [17] was 27.5 µM and the TGI [18] was 31.2 µM. It also gave a TGI [19] of 32.9 µM, a TGI [20] of 30.4 µM and a TGI [21] of 28.3 µM. For the same compound, the TGI [22] was 30.6 µM, the TGI [23] was 32.1 µM and the TGI [24] was 30.2 µM. The TGI [25] was 27.3 µM, the TGI [26] was 31.5 µM and the TGI [27] was 28.8 µM. It also gave a TGI [28] of 33.9 µM, a TGI [29] of 29.5 µM and a TGI [30] of 27.9 µM. It also gave a TGI [31] of 25.6 µM, a TGI [32] of 34 µM and a TGI [33] of 29.9 µM. For the same compound, the TGI [34] was 30 µM, the TGI [35] was 32.9 µM and the TGI [36] was 34.4 µM. It also gave a TGI [37] of 34.1 µM, a TGI [38] of 30.8 µM and a TGI [39] of 34 µM. For the same compound, the TGI [40] was 26.8 µM, the TGI [41] was 34.9 µM and the TGI [42] was 34.5 µM. For the same compound, the TGI [43] was 34.1 µM, the TGI [44] was 40.7 µM and the TGI [45] was 36.3 µM. For the same compound, the TGI [46] was 36.6 µM, the TGI [47] was 33.8 µM and the TGI [48] was 30.5 µM. It also gave a TGI [49] of 33.5 µM, a TGI [50] of 33.8 µM and a TGI [51] of 34.7 µM. For the same compound, the TGI [52] was 31.2 µM, the TGI [53] was 31.4 µM and the TGI [54] was 34 µM. It also gave a TGI [55] of 31.1 µM and a TGI [56] of 32.9 µM.
